In patent US4956381A, “Treating tissue calcium depletion or degenerative processes in bone or cartilage” (Sandoz Ltd., priority 1987, dated 1990):
Read-outs that look alike come from different tables or passages of the source.

Columns and labels:
[1] = system: periodontal disease; assay: Clinical trial III: calcium resorption - periodontal disease; format: in vivo, human; details: ca. 400 to 1200 mg p.o./day or injection ca. 0.5 or 1.0 to 5.0 mg per gum pouch; after ca. 2 to 3 weeks
Method: COMPOUND OF THE INVENTION, e.g. compound D2 or K1 in substantially pure Z-isomeric form, is administered at dosages of from ca. 400 to 1200 mg/p.o./day administered once or in divided dosages up to 4x daily, or by injection into the gum at the site of disease at dosages of the order of about 0.5 or 1.0 to about 5.0 mg into each gum pouch. The subjects are examined at regular weekly or 2x weekly intervals for disease progression.

[2] = system: IL-1; assay: IL-1 induced secretion of metalloproteinase (MP) in chondrocytes; format: cell-based; details: 2 days incubation
Method: Furthermore the influence on IL-1 induced secretion of MP is determined using chondrocytes as a target system for IL-1. IL-1 (Genzyme Corporation,USA) is added with or without a COMPOUND OF THE INVENTION or Dexamethasone (control) to chondrocytes and the activity or metalloproteinase is determined in the supernatant media of 2 days incubation period.

[3] = Acute toxicity (LD50) in mice; details: mouse, in vivo, substantially pure Z-isomeric form
[4] = system: lysosomal enzyme N-acetyl-glucose-aminidase; assay: Prevention of bone resorption: N-acetyl-glucose-aminidase release from calvaria; format: cell-based, Swiss albino mice; details: Mus musculus, read-out: IC50 N-acetylglucose-aminidase
Method: Calvaria halves (frontal and parietal parts) from 4-5 day Swiss albino mice are cultured on stainless steel grids in BGJ bone tissue culture medium, supplemented with 1 mg/ml BSA at the interphase of medium and gas in a humidified atmosphere (95% air/5% CO2 ) at 37° C. - c.f. Reynolds et al. in "Organ Culture in Biomed. Res." eds. Balls and Mamichendam, Cambridge University Press, p.p. 355-366 (1976).
Influence of test substance at varying concentrations on calcium release into :he test medium in the presence of calcium release stimulators [PGE2, LPS or […] (1,25D3)]is determined. For this purpose calcium concentrations are measured in bone culture supernatants obtained from 72 and 144 hour cultures and in TCA extracts of the calvaria at the end of culture by spectrometric methods [Gindler et al., Am. J. Clin. Pathol. 58, 376-382 (1972)]. Activity of lysosomal enzyme N-acetyl-glucose-aminidase in bone culture supernatants and in Triton 100 extracts of calvaria after culture is also determined employing the method of Banerjee and Basu, Biochem. J., 45, 113-118 (1975). Changes in enzyme activity are expressed as μ units/calvarium half and as % release.
(For the calculation of IC50 values the difference between resorption rate in control cultures and resorption in maximally stimulated cultures is taken as 100 %. The IC50 is taken as the concentration of test substance which inhibits maximum resorption by 50 %)

[5] = system: recombinant human IL-1; assay: Recombinant human IL-1 induced mouse thymocyte proliferation; format: cell-based; details: 75 ng/ml rh IL-1
Method: Lymphocyte proliferation is the standard test for monokine activity. It is highly sensitive, though relatively unspecific, with IL-2, phorbol myristate acetate, concanavalin A' g-type-prostaglandin and indomethacin-nall effecting disturbance. Human monocyte culture media are prepared as described under I.I.b. above, diluted 1:10, 1:20 and 1:40 (v:v), and added to […] (obtained from C3H/HeJ mice) Dulbecco's modified Eagle's medium, containing 20 mM hydroxyethyl-piperazin-ethane-sulfonic acid, 12 mM NaHCO3, 2 mM glutamine, 2% foetal bovine serum, 10 μM 2-mercaptoethanol, […] and antibiotics. The cells are incubated for 2 days in 96-well culture plates and the proliferation rate determined using a ^3 H-thymidine pulse (1 μC/well) during the final 6 hours. The incorporated radioactivity is collected on filter paper and counted. […] Thus determined ED50 s for the compounds D2 and K1 each in substantially pure Z-isomeric form in a series of 2 separate experiments each with 3 parallel determinations are of the order of 30 μM
In order to rule out an antagonistic effect or a direct influence of the COMPOUNDS OF THE INVENTION on the proliferation of mouse thymocytes which are used above in the LAF-test, the effect of the COMPOUNDS OF THE INVENTION on the incorporation of ^3 H-thymidine Is determined after thymocyte stimulation with recombinant human IL-1 or IL-2.

COC1=Cc2ccccc2/C(=C/C(=O)O)c2ccsc21 [Compound D2, [10-Methoxy-4H-benzo[4,5]cyclohepta[1,2-b]thiophen-4-ylidene]-acetic acid]
condition (periodontal disease) [1]: marked improvement in condition after ca. 2 to 3 weeks continuous therapy | influence on IL-1 induced secretion of MP [2]: do not influence the IL-1 induced secretion of MP | LD50 at 168 h ([3]; iv, 7 days): 163 mg/kg | LD50 at 336 h ([3]; po, 14 days): 1620 mg/kg | IC50 ([4]; in the presence of 1,25D3): 37 µM | IC50 ([4]; in the presence of LPS): 8.3 µM | IC50 ([4]; in the presence of PGE2): 7.9 µM | concentration dependency of influence on rh IL-1 induced proliferation [5]: no concentration dependency is detectable | influence on recombinant human IL-1 induced proliferation ([5]; 3H-thymidine incorporation, mouse thymocytes): no significant influence
